Data set [1] deals with amylase. As to conditions: prior art statement; cited from earlier work.
Data set [2] has as its target pepsin (Sus scrofa, UniProt P00791). As to the kind of experiment: Action of various proteases on Amylostatin-A. Format: in vitro ADME.
The target in data set [3] is chymotrypsin (Bos taurus, UniProt P00766). As to the kind of experiment: Action of various proteases on Amylostatin-A. The data set is classed as in vitro ADME.
Data set [4] relates to digestion and absorption of starch. As to the kind of experiment: Biological test on digestibility of starch. Format: in vivo, male rats of Wistar strain. The note with it: rats, 4 hours. Here is the method: An experiment concerning the inhibitory effect of Amylostatin-A on the digestion and absorption of starch in vivo was carried out using sound male rats of Wistar strain weighing from 250 to 300g. After they had been made to fast, receiving only water for 48 hours, 60 rats were selected and divided into 10 groups of each 5 or 10 as shown in Table 4.
Rats in control groups were given either 2.5 ml of an isotonic sodium chloride solution in which 300 mg of soluble starch (Wako Junyaku Co., Inc.) was dissolved or 2.5 ml of an isotonic sodium chloride solution in which 300 mg of corn starch (Japanese Pharmacopia) was suspended. The rats were subjected to a laparotomy, the solution was injected into the stomach and the incision site was sutured. Rats in test groups were given the same amount and kinds of solutions as given to the rats in control groups except that varying amounts of crude Amylostatin-A obtained according to the methods of Example 1 were added as shown in Table 4. The test solutions were administered in the same manner as the control solutions.
After the lapse of definite periods of time, all rats were again laparotomized at the site of the original incision and all contents of the stomach and small intestines were removed by washing with an isotonic sodium chloride solution. To these washings containing residual starch, 25 ml of 1N hydrochloric acid was added. The mixture was heated to carry the hydrolytic reaction to completion and the quantity of reducing sugar formed was determined by Somogyi's method.

For data set [5], the system named is bacterial α-amylase (crystalline). The data set is described as follows: Assay of amylase inhibitory activity (units). The data set is classed as biochemical. As to conditions: purified powdery preparation, Example 1. Here is the method: The reaction mixture consisting of 4 ml of a 1.5% soluble starch solution in 0.1M acetate buffer solution at pH 5.5, 0.5 ml of distilled water and 0.5 ml of the amylase solution to be assayed (amylase or bacterial α-amylase (crystalline) ) is incubated at 37° C. for 10 minutes and the reaction is terminated by adding a mixture of 5:1 by volume of 0.5N acetic acid and 0.5N hydrochloric acid. From this solution, 0.2 ml is withdrawn and added to 5 ml of N/3000 iodine solution and the absorbency is measured at 660 nm. The amylase activity per one ml of the enzyme solution expressed in units is calculated as follows: [formula] in which D is the optical density of the enzyme solution and Do is the optical density of the control.
The reaction mixture consisting of 0.5 ml of 2 × 10^^-4 % of bacterial α-amylase (crystalline) and 0.5 ml of the solution of Amylostatin-A is incubated at 37° C. for 10 minutes. Any residual amylase activity is determined according to the method of assay of amylase activity described above. One unit of amylase inhibitory activity is defined as the amount of inhibitory activity necessary to inactivate one unit of amylase.

The target in data set [6] is T1, papain (Carica papaya, UniProt P00784).
T1 sequence (P00784 134-345): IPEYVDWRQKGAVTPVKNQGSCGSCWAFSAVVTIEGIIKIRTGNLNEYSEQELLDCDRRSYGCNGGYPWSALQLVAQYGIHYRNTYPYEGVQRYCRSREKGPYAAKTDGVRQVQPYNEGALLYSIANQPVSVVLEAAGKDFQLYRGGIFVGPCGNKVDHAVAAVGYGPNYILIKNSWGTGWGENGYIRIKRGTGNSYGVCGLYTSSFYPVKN
As to the kind of experiment: Action of various proteases on Amylostatin-A. The data set is classed as in vitro ADME.

A short description of data set [7]: Stability in buffer solution (pH and heat). Format: physicochemical.
Data set [8] deals with trypsin. The data set is described as follows: Action of various proteases on Amylostatin-A. The data set is classed as in vitro ADME.
Data set [9] in a line: Solubility. The data set is classed as physicochemical.

Sequence of pepsin (P00791 60-385): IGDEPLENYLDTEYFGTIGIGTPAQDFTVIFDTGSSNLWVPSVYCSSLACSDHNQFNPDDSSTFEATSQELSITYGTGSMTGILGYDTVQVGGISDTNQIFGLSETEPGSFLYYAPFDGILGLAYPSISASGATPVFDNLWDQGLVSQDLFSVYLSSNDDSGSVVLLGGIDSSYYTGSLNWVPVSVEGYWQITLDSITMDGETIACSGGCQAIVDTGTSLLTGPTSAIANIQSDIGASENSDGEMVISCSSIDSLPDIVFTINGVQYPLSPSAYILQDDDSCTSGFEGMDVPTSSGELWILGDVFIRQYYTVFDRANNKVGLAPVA

On to `OC[C@H]1NC(O)[C@H](O)[C@@H](O)[C@@H]1O` (stereo partly shown) [Nojirimycin], for which, in [1], the amylase inhibitory activities result was “extremely low”.
In the case of Amylostatin-A, the “inactivation of the inhibitory activity on amylase by protease” value in data set [2], in data set [3], in data set [6] and in [8] was “unable to inactivate” in each case. In addition, the “residual % of starch (average)” value came out at 82.5% in data set [4] (300 mg cornstarch into the stomach, 2.5 mg crude Amylostatin-A added); 93.6% in data set [4] (300 mg cornstarch into the stomach, 5 mg crude Amylostatin-A added); 92.5% in data set [4] (300 mg cornstarch into the stomach, 10 mg crude Amylostatin-A added); 63.8% in data set [4] (300 mg soluble starch (dissolved on heating) into the stomach, 5 mg crude Amylostatin-A added); 65.7% in data set [4] (300 mg soluble starch (dissolved on heating) into the stomach, 10 mg crude Amylostatin-A added). Also, the amylase inhibitory activity in data set [5] is listed as 3.5 × 10^4 units per mg. Also, the Stability entry in data set [7] (buffer solution, pH 1 to 12, 37° C. for 12 hours) is “substantial stability”; in data set [7] (heated at 100° C. for 30 minutes, pH 1 to 12) it was “substantial stability”. The Solubility result in [9] (acetone) is given as “substantially insoluble”; in data set [9] (chloroform), “substantially insoluble”; in data set [9] (ethanol) it was “substantially insoluble”; in data set [9] (methanol), “substantially insoluble”; in data set [9] (pyridine), “soluble”; in data set [9] (water) it was “soluble”.

These data come from US4010258A, “Microbial amylase inhibitor and preparation thereof with the use of streptomyces diasticus var. amylostaticus” (Ajinomoto Co., Inc., priority 1974, dated 1977).
